Measurements taken from patent US20220184071A1, “GEPOTIDACIN FOR USE IN THE TREATMENT OF BACTERIAL URINARY TRACT INFECTIONS” (GlaxoSmithKline Intellectual Property Development Limited, priority 2019, published 2022).
≈ marks a conversion by molar mass, not a printed value. Read-outs that look alike come from different tables or passages of the source.

Experiments:
[1] = MIC by CLSI broth microdilution, Example 1 Method 1, gram-negative aerobic organisms; assay type: cell-based; conditions: at least one strain of every organism listed; salt of gepotidacin (such as mesylate salt)
Experimental: Antimicrobial activity was determined by broth microdilution using the CLSI recommended procedure.

E. coli [2] = assay: MIC by CLSI agar dilution, Example 1 Method 2; assay type: cell-based, Escherichia coli
Experimental: Antimicrobial activity was determined in a second study by […] using the CLSI recommended procedure in serial two-fold dilutions and the minimum inhibitory concentration (MIC) was determined as the lowest concentration of the compound that inhibited visible growth.
MICs were determined according to CLSI agar dilution guidelines.

C. koseri = assay: Phase IIa PK/PD and microbiological response by uropathogen; assay type: in vivo, human; conditions: Participant 1
Experimental: (§1) This phase IIa single center study evaluated the safety, tolerability, pharmacokinetics, and efficacy of oral gepotidacin 1500 mg BID for 5 days in female subjects with acute cystitis. Clean catch mid-stream urine specimens were obtained for quantitative culture by standard methods. Urine samples were taken from all participants pre-treatment (baseline) and at all post-baseline visits. All urine samples were sent to a central laboratory (PPD Global Clinical Laboratories, Highland Heights, Ky., USA) for Gram stain, quantitative culture, pathogen identification and susceptibility testing. See FIG. 1 for participant disposition and study outline.
(§2) Susceptibility testing by CLSI broth microdilution and gradient diffusion (fosfomycin only) was conducted (CLSI, 2015, Methods for dilution antimicrobial susceptibility tests for bacteria that grow aerobically; approved standard-tenth edition; and CLSI, 2018. Performance Standards for Antimicrobial Susceptibility Testing; Twenty-seventh Informational Supplement M100-S28). Inclusion in the microbiological intent-to-treat population (micro-ITT), required growth of a qualifying baseline uropathogen (≥10^5 CFU/mL). See FIG. 2 for the baseline algorithm.
(§3) For pharmacokinetic assessments, serial blood and urine samples for the assessment of gepotidacin PK concentrations were collected out to 12 hours post dose (T) following the morning dose on Days 1 and 4. CT (trough) concentrations were collected on Days 1-5. PK concentrations of gepotidacin in plasma and urine were measured using a validated LC-MS/MS bio-analytical assay.

E. coli [3] = assay: as above; assay type: in vivo, human
Experimental: as §1, §2, §3

K. pneumoniae = assay: as above; assay type: in vivo, human; conditions: Participant 7
Experimental: as §1, §2, §3

S. saprophyticus = assay: as above; assay type: in vivo, human; conditions: Participant 8
Experimental: as §1, §2, §3

Morganella morganii = assay: MIC, Example 5 Method 1; assay type: cell-based; conditions: at least one isolate tested
Clostridium difficile = assay: MIC by CLSI agar dilution, Example 6 Method 1; assay type: cell-based
Experimental: (§4) Antimicrobial activity was determined by agar dilution using the Clinical and Laboratory Standards Institute (CLSI) recommended procedure.
(§5) The compounds were tested in serial two-fold dilutions and the minimum inhibitory concentration (MIC) was determined as the lowest concentration of the compound that inhibited visible growth. Gepotidacin was tested against 333 gram-negative anaerobic and 203 gram-positive anaerobic isolates collected from clinical samples in North America and Europe from 2000 to 2017; the majority collected from 2013 to 2016.
(§6) Ceftriaxone, clindamycin, imipenem, metronidazole, moxifloxacin and piperacillin/tazobactam were included as comparators.
(§7) Additional analysis was performed from the results of the study described in Method 1 above, to determine the in vitro activity of gepotidacin against gram-negative and gram-positive anaerobic organisms with resistance to ceftriaxone, clindamycin, imipenem, metronidazole, moxifloxacin and piperacillin/tazobactam.

Eubacterium spp. = assay: MIC by CLSI agar dilution, Example 6 Method 1; assay type: cell-based
Experimental: as §4, §5, §6, §7

Lactobacillus spp. = assay: MIC by CLSI agar dilution, Example 6 Method 1; assay type: cell-based
Experimental: as §4, §5, §6, §7

[4] = test system: Peptostreptococcus anaerobius; assay: MIC by CLSI agar dilution, Example 6 Method 1; assay type: cell-based; conditions: for Gepotidacin MIC range: 3 isolates
Experimental: as §4, §5, §6, §7

Porphyromonas spp. = assay: MIC by CLSI agar dilution, Example 6 Method 1; assay type: cell-based; conditions: 26 isolates, read-out: Gepotidacin MIC90
Experimental: as §4, §5, §6, §7

Prevotella spp. = assay: MIC by CLSI agar dilution, Example 6 Method 1; assay type: cell-based
Experimental: as §4, §5, §6, §7

Veillonella spp. = assay: MIC by CLSI agar dilution, Example 6 Method 1; assay type: cell-based
Experimental: as §4, §5, §6, §7

[5] = test system: gram-negative and gram-positive anaerobes tested; assay: MIC by CLSI agar dilution, Example 6 Method 1; assay type: cell-based
Experimental: as §4, §5, §6, §7

## O=c1ccc2ncc(=O)n3c2n1C[C@H]3CN1CCC(NCc2cc3c(cn2)OCCC3)CC1 [gepotidacin, (2R)-2-({4-[(3,4-dihydro-2H-pyrano[2,3-c]pyridin-6-ylmethyl)amino]-1-piperidinyl}methyl)-1,2-dihydro-3H,8H-2a,5,8a-triazaacenaphthylene-3,8-dione]
[1]
  MIC: ≤ 8 µg/mL
E. coli [2]; 254 isolates
  MICs ranged: ≤0.06 to 64 mg/L
E. coli [2]; 254 isolates, enriched for drug resistance
  % of the tested isolates inhibited at ≤8 mg/L: 96.1%
E. coli [2]; Escherichia coli, n = 254
  MIC50: 2 µg/mL (≈ 4.46 µM)
  MIC90: 8 µg/mL (≈ 17.8 µM)
E. coli [2]; KPC producing E. coli
  % of isolates inhibited at ≤8 mg/L: 94.6%
E. coli [2]; NDM producing E. coli
  % of isolates inhibited at ≤8 mg/L: 100%
E. coli [2]; OXA-48-like producing E. coli
  % of isolates inhibited at ≤8 mg/L: 92.1%
E. coli [2]; QRDR data for 188 of 254 isolates
  Effect of levofloxacin non-susceptibility or QRDR substitutions in GyrA and ParC on activity: unaffected
E. coli [2]; n = 254
  Number of Isolates at Gepotidacin MIC 0.5 mg/L: 22
  Number of Isolates at Gepotidacin MIC 1 mg/L: 56
  Number of Isolates at Gepotidacin MIC 2 mg/L: 92
  Number of Isolates at Gepotidacin MIC 4 mg/L: 37
  Number of Isolates at Gepotidacin MIC 8 mg/L: 33
  Number of Isolates at Gepotidacin MIC ≤0.25 mg/L: 4
  Number of Isolates at Gepotidacin MIC ≥16 mg/L: 10
C. koseri
  Microbiological success at Follow-up: Failure
  Microbiological success at TOC: Success
E. coli [3]; Participant 2
  Microbiological success at Follow-up: Success
  Microbiological success at TOC: Success
E. coli [3]; Participant 3
  Microbiological success at Follow-up: Success
  Microbiological success at TOC: Success
E. coli [3]; Participant 4
  Microbiological success at Follow-up: Success
  Microbiological success at TOC: Success
E. coli [3]; Participant 5, failure due to an out of stability urine specimen
  Microbiological success at TOC: Failure^b
E. coli [3]; Participant 5, failures at TOC considered failures at Follow-up
  Microbiological success at Follow-up: Failure^c
E. coli [3]; Participant 6, MDR
  Microbiological success at Follow-up: Success
  Microbiological success at TOC: Success
K. pneumoniae
  Microbiological success at Follow-up: Success
  Microbiological success at TOC: microbiological success
K. pneumoniae; listed as GEP
  Microbiological success at TOC: Success
S. saprophyticus
  Microbiological success at Follow-up: Success
  Microbiological success at TOC: Success
Morganella morganii
  MIC: 4 µg/mL (≈ 8.92 µM)
Clostridium difficile; Clostridioides difficile ceftriaxone R, 48 isolates
  Gepotidacin MIC range: 0.5 to 4 µg/mL
Clostridium difficile; Clostridioides difficile clindamycin R, 23 isolates
  Gepotidacin MIC range: 0.5 to 2 µg/mL
Clostridium difficile; Clostridioides difficile imipenem R, 2 isolates
  Gepotidacin MIC range: 1 µg/mL
Clostridium difficile; Clostridioides difficile moxifloxacin R, 37 isolates
  Gepotidacin MIC range: 0.5 to 8 µg/mL
Clostridium difficile; Clostridioides difficile, 100 isolates, read-out: Gepotidacin MIC90
  MIC90: 2 µg/mL (≈ 4.46 µM)
Eubacterium spp.; Eubacterium, 31 isolates, read-out: Gepotidacin MIC90
  MIC90: 2 µg/mL (≈ 4.46 µM)
Eubacterium spp.; moxifloxacin R, 3 isolates
  Gepotidacin MIC range: 0.25 to 2 µg/mL
Lactobacillus spp.; Lactobacillus, 91 isolates, read-out: Gepotidacin MIC90
  MIC90: 1 µg/mL (≈ 2.23 µM)
Lactobacillus spp.; clindamycin R, 3 isolates
  Gepotidacin MIC range: 0.03 to 1 µg/mL
Lactobacillus spp.; imipenem R, 27 isolates
  Gepotidacin MIC range: 0.03 to 1 µg/mL
[4]; Peptostreptococcus anaerobius, 25 isolates, read-out: Gepotidacin MIC90
  MIC90: 0.03 µg/mL (≈ 0.0669 µM)
[4]; clindamycin R
  Gepotidacin MIC range: ≤0.015 to 0.03 µg/mL
[4]; moxifloxacin R
  Gepotidacin MIC range: 0.03 µg/mL
Porphyromonas spp.
  MIC90: 1 µg/mL (≈ 2.23 µM)
Prevotella spp.; Prevotella, 30 isolates, read-out: Gepotidacin MIC90
  MIC90: 4 µg/mL (≈ 8.92 µM)
Prevotella spp.; ceftriaxone R, 6 isolates
  Gepotidacin MIC range: 0.25 to 2 µg/mL
Prevotella spp.; clindamycin R, 7 isolates
  Gepotidacin MIC range: 0.25 to 4 µg/mL
Veillonella spp.; Veillonella, 25 isolates, read-out: Gepotidacin MIC90
  MIC90: 0.12 µg/mL (≈ 0.268 µM)
Veillonella spp.; clindamycin R, 5 isolates
  Gepotidacin MIC range: 0.125 µg/mL
Veillonella spp.; moxifloxacin R, 3 isolates
  Gepotidacin MIC range: ≤0.015 to 0.03 µg/mL
[5]
  MIC: ≤ 2 µg/mL
[5]; 333 gram-negative and 203 gram-positive anaerobic isolates, per pathogen group
  MIC90: ≤ 4 µg/mL
[5]; Bacteroides caccae, read-out: MICs
  MIC: ≤ 4 µg/mL
